The values below come from patent US7732611B2, “Amine salt of carbostyril derivative” (Otsuka Pharmaceutical Co., Ltd., priority 2004, dated 2010).

Series [1] can be described thus: Solubility test at 25° C. of the salt in a preparation prepared when used without isolating the salt (HPLC). The format is physicochemical. The conditions noted are these: water, Compound A plus equimolar amine, salt not isolated, shaken 7 days, 0.2 μm filter. The protocol:
And then as to a sample to which arginine was added, the suspension was filtered through a 0.2 μm membrane filter. […] And then the mixture was filtrated through a 0.2 μm membrane filter. According to the same method as Example 8, the solubilities (%) of each salt was measured by HPLC.

The nature of series [2]: Water-solubility test at 25° C. of the isolated salts (HPLC). It is filed as physicochemical. Particulars: shaken 3 hours (5 days for meglumine salt), filtered, concentration of Compound A by HPLC. The protocol: Preparation of the Test Solution
After shaking, the mixture was filtered through a 0.45 μm membrane filter (0.2 μm for meglumine salt). 1 mL of the filtrate was precisely pipetted and thereto was added 50% DMF so as to be totally 50 mL in precise. 2 mL of this solution was precisely pipetted and thereto was added 50% DMF so as to be totally 20 mL in precise to give a sample solution.
Preparation of the Standard Solution
Using each 10 μL of the sample solutions and the standard solutions, the liquid chromatographic analyses were carried out in the following conditions.

For `CC(O)CNCC(C)O.O=C(NC(Cc1cc(=O)[nH]c2ccccc12)C(=O)O)c1ccc(Cl)cc1` (centres unmarked) [Compound A·diisopropanolamine salt, 2-(4-chlorobenzoylamino)-3-(2-quinolon-4-yl)propionic acid.diisopropanolamine salt], the figures for the “Solubility (%)” value in series [1] and in series [2] were >7.4% and 2.9%, respectively.
